Test results reported in the supplement of paper PMC11451515.

Legend:
Assay in all cases: AUC of viability dose-response curve (% viability x log10 dose units); higher = less sensitive
Conditions in all cases: 48 h
SEM cells = test system: SEM cells
Method in brief: (§1)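 In 1536-well plates, leukemia cells adapted to each medium (500 or 1000 cells/well) were exposed for 48 h at 37°C to library compounds in DMSO across 11 threefold doses, 47 μM down to 0.79 nM. Viability was read by CellTiter-Glo One luminescence and normalised per plate to DMSO and cell-free wells. A four-parameter log-logistic fit over log10 doses was integrated by trapezoidal rule. This yielded the area under the curve, with over-full-viability curves scaled and quality-control failures dropped.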

P12-Ichikawa = test system: P12-Ichikawa
Method in brief: as §1

NOMO1 = test system: NOMO1
Method in brief: as §1

[1] = RPMI 5 mM glucose + 10% dialyzed FBS

| SMILES | AUC of viability dose-response curve (SEM cells; HPLM + 10% dialyzed FBS) | AUC of viability dose-response curve (SEM cells; RPMI 5 mM glucose + 10% FBS) | AUC of viability dose-response curve (SEM cells; [1]) | AUC of viability dose-response curve (P12-Ichikawa; HPLM + 10% dialyzed FBS) | AUC of viability dose-response curve (P12-Ichikawa; RPMI 5 mM glucose + 10% FBS) | AUC of viability dose-response curve (P12-Ichikawa; [1]) | AUC of viability dose-response curve (NOMO1; HPLM + 10% dialyzed FBS) | AUC of viability dose-response curve (NOMO1; RPMI 5 mM glucose + 10% FBS) | AUC of viability dose-response curve (NOMO1; [1]) |
| --- | --- | --- | --- | --- | --- | --- | --- | --- | --- |
| CC1(C)[C@@H](O)CC[C@@]2(C)[C@H]1CC[C@]3(C)[C@@H]2C(=O)\C=C/4[C@@H]5C[C@](C)(CC[C@]5(C)CC[C@@]34C)C(O)=O | 468 | 470 | 477 | 464 | 468 | 461 | 465 | 448 | 460 |
| COc1ccc(/C=C/C(=O)Nc2ccccc2C(=O)O)cc1OC | 446 | 438 | 448 | 453 | 458 | 450 | 434 | 455 | 463 |
| COCCCC/C(=N\OCCN)c1ccc(C(F)(F)F)cc1 | 389 | 398 | 462 | 400 | 371 | 373 | 358 | 369 | 369 |
| Cc1ccc(C(=O)Nc2ccc([S+](=O)([O-])O)c3cc([S+](=O)([O-])O)cc([S+](=O)([O-])O)c23)cc1NC(=O)c1cccc(NC(=O)Nc2cccc(C(=O)Nc3cc(C(=O)Nc4ccc([S+](=O)([O-])O)c5cc([S+](=O)([O-])O)cc([S+](=O)([O-])O)c45)ccc3C)c2)c1 | 414 | 393 | 373 | 390 | 392 | 381 | 350 | 406 | 396 |
| CC(C)[C@H](O)C(=O)N[C@@H](C)C(=O)N[C@@H]1C(=O)N(C)CCc2ccccc21 | 431 | 441 | 393 | 447 | 450 | 423 | 444 | 472 | 460 |
| CNC(=O)c1nn(C)c2c1C(C)(C)Cc1cnc(Nc3ccc(N4CCN(C)CC4)cc3)nc1-2 | 269 | 265 | 275 | 404 | 384 | 376 | 371 | 400 | 386 |
| CC[C@H]1OC(=O)[C@H](C)[C@@H](O[C@H]2C[C@@](C)(OC)[C@@H](O)[C@H](C)O2)[C@H](C)[C@@H](O[C@@H]2O[C@H](C)C[C@H](N(C)C)[C@H]2O)[C@](C)(O)C[C@@H](C)/C(=N\OCOCCOC)[C@H](C)[C@@H](O)[C@]1(C)O | 423 | 444 | 465 | 423 | 390 | 407 | 409 | 424 | 374 |
| NC(=O)c1nnn(Cc2cc(Cl)c(C(=O)c3ccc(Cl)cc3)c(Cl)c2)c1N | 471 | 462 | 464 | 463 | 465 | 464 | 465 | 455 | 470 |
| CCC[C@H](Nc1nc(-c2ccc(NC(=O)NCC)c(OC)c2)ncc1C)c1cccnc1 |  |  |  | 195 | 194 | 205 | 287 | 251 | 251 |
| OC1=C(Cl)C=C(N\C2=C(\C(=O)NC2=O)C3=C(C=CC=C3)[N+]([O-])=O)C=C1 | 419 | 426 | 434 | 457 | 456 | 459 | 400 | 431 | 427 |
| CC1=CC/2=C(C=C1C)N(C[C@@H](O)[C@@H](O)[C@@H](O)CO)C/3=N/C(=O)NC(=O)C3=N2 | 474 | 428 | 474 | 458 | 449 | 451 | 462 | 472 | 460 |
| COc1ccc(-n2c(C)c([N+](=O)[O-])c3ccc(O)cc32)cc1 | 469 | 453 | 468 | 446 | 465 | 464 | 452 | 476 | 446 |
| Clc1ccc(C(c2ccccc2Cl)C(Cl)Cl)cc1 (stereo not given) |  |  |  | 452 | 436 | 432 | 427 | 456 | 448 |
| Cc1cc(/C=c2/sc3nc4ccccc4n3c2=O)c(C)n1-c1ccccc1 | 473 | 466 | 473 | 471 | 476 | 467 | 472 | 455 | 472 |
| CCN1\C=C(C(O)=O)/C(=O)C2=C1C(=C(N3CCNC(C)C3)C(=C2)F)F (stereo not given) | 467 | 471 | 469 | 462 | 457 | 461 | 458 | 471 | 452 |
| O=C(CCCN1CCC(O)(c2ccc(Cl)cc2)CC1)c1ccc(F)cc1 |  |  |  | 459 | 466 | 470 | 467 | 471 | 470 |
| CC(C)[C@H]1C(=O)N[C@H](CO)Cc2c[nH]c3cccc(c23)N1C | 396 | 379 | 442 | 446 | 411 | 401 | 393 | 404 | 405 |
| COc1cccc(OC)c1-c1cc(C(=O)NC2(C(=O)O)C3CC4CC(C3)CC2C4)nn1-c1ccnc2cc(Cl)ccc12 (stereo not given) | 467 | 467 | 461 | 456 | 472 | 454 | 447 | 473 | 455 |
| CC(C)(C)NCC(O)c1ccc(O)c(CO)c1 (stereo not given) | 474 | 461 | 470 | 438 | 431 | 442 | 388 | 420 | 399 |
| CC1(C)CCC(C)(C)c2cc(NC(=O)c3ccc(C(=O)O)cc3)ccc21 | 464 | 465 | 451 | 463 | 470 | 469 | 455 | 445 | 435 |
| C[C@@H]1CC[C@@]2(CC[C@]3(C)\C(=C/C[C@@H]4[C@@]5(C)C[C@@H](O)[C@H](O)[C@@](C)(CO)[C@@H]5CC[C@@]34C)[C@@H]2[C@H]1C)C(O)=O | 385 | 455 | 295 | 468 | 472 | 460 | 446 | 445 | 468 |
| Cc1cccc(-c2[nH]c(C(C)(C)C)nc2-c2ccc3nccnc3c2)n1 | 444 | 383 | 443 | 459 | 458 | 424 | 460 | 430 | 455 |
| CN1CCN(CC1)C2=CC3=C([NH]C(=N3)C/4=C(\N)C5=C(F)C=CC=C5NC4=O)C=C2 | 161 | 178 | 152 | 420 | 395 | 399 | 418 | 440 | 433 |

| SMILES | AUC of viability dose-response curve (SEM cells; HPLM + 10% dialyzed FBS) | AUC of viability dose-response curve (SEM cells; RPMI 5 mM glucose + 10% FBS) | AUC of viability dose-response curve (SEM cells; [1]) | AUC of viability dose-response curve (P12-Ichikawa; HPLM + 10% dialyzed FBS) | AUC of viability dose-response curve (P12-Ichikawa; RPMI 5 mM glucose + 10% FBS) | AUC of viability dose-response curve (P12-Ichikawa; [1]) | AUC of viability dose-response curve (NOMO1; HPLM + 10% dialyzed FBS) | AUC of viability dose-response curve (NOMO1; RPMI 5 mM glucose + 10% FBS) | AUC of viability dose-response curve (NOMO1; [1]) |
| --- | --- | --- | --- | --- | --- | --- | --- | --- | --- |
| c1coc(CNc2ncnc3nc[nH]c23)c1 | 460 | 469 | 473 | 437 | 464 | 467 | 455 | 461 | 445 |
| CCn1c(C(=O)N(C2CC2)C2CC2)cc2c3c(ncn3C)c(Nc3cc(C)n(C)n3)nc21 | 454 | 446 | 435 | 466 | 473 | 467 | 472 | 473 | 464 |
| CCOC(=O)c1c(CSc2ccccc2)n(C)c2cc(Br)c(O)c(CN(C)C)c12 | 463 | 459 | 469 | 464 | 461 | 464 | 471 | 461 | 450 |
| NC(=O)N1CCC(CC(=O)N2CCC([C@H]3c4ncc(Br)cc4CCc4cc(Cl)cc(Br)c43)CC2)CC1 | 363 | 355 | 395 | 413 | 395 | 410 | 442 | 439 | 432 |
| OC[C@H]1OC(O)C[C@@H](O)[C@@H]1O (stereo not given in full) | 439 | 441 | 447 | 463 | 470 | 475 | 463 | 466 | 466 |
| N#CC1(c2cccc(C(=O)Nc3cc(Oc4ccc5nc(NC(=O)C6CC6)sc5n4)ccc3F)c2Cl)CC1 |  |  |  | 372 | 362 | 369 | 344 | 370 | 327 |
| CC(=O)OCC(=O)[C@@]1(O)CC[C@H]2[C@@H]3CCC/4=C/C(=O)/C=C\[C@]4(C)[C@H]3[C@@H](O)C[C@]12C | 383 | 425 | 428 |  |  |  | 439 | 450 | 472 |
| COCC(=O)NC/C=C/c1ccc2ncnc(Nc3ccc(Oc4ccc(C)nc4)c(C)c3)c2c1 | 430 | 460 | 412 | 464 | 437 | 436 | 329 | 372 | 384 |
| CN(C)c1ccc(-c2nc3c(N4CCN(CC(=O)Nc5nccs5)CC4)c(Cl)cnc3[nH]2)cc1 | 429 | 420 | 421 | 468 | 466 | 428 | 431 | 466 | 460 |
| CC(=O)N(O)CCCCCNC(=O)CCC(=O)N(O)CCCCCNC(=O)CCC(=O)N(O)CCCCCN.C[S+](=O)([O-])O |  |  |  | 115 | 225 | 249 | 204 | 199 | 261 |
| CCC(=O)O[C@@]1(CC[C@H]2[C@@H]3CCC/4=C/C(=O)CC[C@]4(C)[C@H]3CC[C@]12C)C(=O)CO |  |  |  | 454 | 452 | 455 | 457 | 467 | 458 |
| CC[C@H](CO)Nc1nc(NCc2ccccc2)c2ncn(C(C)C)c2n1 | 438 | 467 | 440 | 432 | 428 | 428 | 432 | 405 | 427 |
| COc1c(N2C[C@@H]3CCCN[C@@H]3C2)c(F)cc2c(=O)c(C(=O)O)cn(C3CC3)c12.Cl.O |  |  |  | 434 | 394 | 399 | 390 | 456 | 437 |
| CCC(=O)NC[C@H](Cc1ccc(OCCc2nc(-c3ccccc3)oc2C)cc1)N/C(C)=C\C(=O)c1ccc(C(F)(F)F)cc1 |  |  |  | 410 | 406 | 398 | 433 | 438 | 462 |
| COc1cc2c(cc1O)CCC1C2CC[C@@]2(C)C1CC[C@@H]2O (stereo not given in full) |  |  |  | 359 | 368 | 382 | 390 | 412 | 404 |
| OC(=O)CNC(=O)\C1=C(/O)C2=CC=CC=C2N(CC3=CC=CC=C3)C1=O |  |  |  | 462 | 456 | 433 | 466 | 430 | 450 |
| Cc1cnc(Nc2cccc(CN3CCOCC3)c2)nc1Nc1cccc([S+](=O)([O-])NC(C)(C)C)c1 | 329 | 345 | 308 |  |  |  |  |  |  |
| c1ccc2c(CN3CCNCC3)cccc2c1 | 465 | 473 | 454 |  |  |  | 462 | 455 | 456 |
| COc1cc(N2CCC(N3CCN(C)CC3)CC2)ccc1Nc1ncc(Cl)c(Nc2ccccc2[S+](=O)([O-])C(C)C)n1 | 284 | 273 | 300 |  |  |  |  |  |  |
| CC(C)[C@]12O[C@H]1[C@@H]3O[C@@]34[C@@]5(C)CC\C6=C(COC6=O)/[C@@H]5C[C@@H]7O[C@]47[C@@H]2O |  |  |  | 59 | 56.8 | 62.8 | 49.2 | 49 | 45.7 |
| NCCOc1cc(C(=O)Nc2cc(OCCN)c3ccccc3n2)nc(C(=O)Nc2cc(OCCN)c3ccccc3n2)c1 | 148 | 122 | 170 |  |  |  |  |  |  |
| C/C1=C/C(=C(/CNC(=O)C2=CC(=CC3=C2C=N[N]3C4CCCC4)C5=CC=C(CN6CCOCC6)C=C5)C(=O)N1)C |  |  |  | 456 | 462 | 452 | 448 | 456 | 451 |
